Test results published in patent US20240269139A1, “COMPOUNDS FOR TARGETED PROTEIN DEGRADATION OF KINASES” (DANA-FARBER CANCER INSTITUTE, INC., priority 2020, published 2024).
Where “and” joins values, the source holds several entries; their conditions need not be identical. Equal entries are not always repeated. Where two headings read alike, the source gives them in different places.

Experiments:
Assay type in all cases: cell-based
[1] = target: protein kinases (human kinome) (Homo sapiens, UniProt Q8NI60)
[2] = target: T1, protein kinases (human kinome) (Homo sapiens, UniProt Q4G0N4); conditions: Accession Q4GON4, direction down
T1 sequence (Q4G0N4 63-442): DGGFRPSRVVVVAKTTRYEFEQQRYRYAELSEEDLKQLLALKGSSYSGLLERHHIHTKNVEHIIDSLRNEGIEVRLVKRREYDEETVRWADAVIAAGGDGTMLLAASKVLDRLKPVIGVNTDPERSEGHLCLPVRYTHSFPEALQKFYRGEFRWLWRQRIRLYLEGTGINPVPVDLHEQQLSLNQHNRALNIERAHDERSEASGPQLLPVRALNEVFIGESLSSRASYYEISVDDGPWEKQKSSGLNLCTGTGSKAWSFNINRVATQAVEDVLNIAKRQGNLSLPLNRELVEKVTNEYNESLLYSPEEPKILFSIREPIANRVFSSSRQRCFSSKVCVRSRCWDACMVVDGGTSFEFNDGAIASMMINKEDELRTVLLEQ

[3] = target: protein kinases (human kinome) (Homo sapiens, UniProt Q15119); conditions: for logFC PDK2: Accession Q15119-1
[4] = target: T2, protein kinases (human kinome) (Homo sapiens, UniProt Q969Z0); conditions: Accession Q969Z0-1, direction down
T2 sequence (Q969Z0 108-631): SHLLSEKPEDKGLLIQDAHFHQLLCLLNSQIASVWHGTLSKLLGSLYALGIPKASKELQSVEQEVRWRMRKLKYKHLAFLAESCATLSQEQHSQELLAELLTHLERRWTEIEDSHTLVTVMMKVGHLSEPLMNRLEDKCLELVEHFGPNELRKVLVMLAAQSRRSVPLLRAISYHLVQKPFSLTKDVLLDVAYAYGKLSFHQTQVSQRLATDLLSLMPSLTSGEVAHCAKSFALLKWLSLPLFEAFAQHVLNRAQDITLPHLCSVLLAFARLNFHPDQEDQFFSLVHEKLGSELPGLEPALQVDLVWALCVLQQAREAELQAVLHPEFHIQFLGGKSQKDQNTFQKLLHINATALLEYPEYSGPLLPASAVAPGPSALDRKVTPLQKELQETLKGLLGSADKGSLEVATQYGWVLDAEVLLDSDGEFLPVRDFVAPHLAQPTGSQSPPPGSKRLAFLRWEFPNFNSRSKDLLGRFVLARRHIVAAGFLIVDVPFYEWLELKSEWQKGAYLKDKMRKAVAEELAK

[5] = target: protein kinases (human kinome) (Homo sapiens, UniProt Q14289); conditions: for logFC: PTK2B (Q14289-1) protein abundance, degrader vs DMSO, down; for logFC PTK2B: accession Q14289-1, direction of change down
[6] = target: protein kinases (human kinome) (Homo sapiens, UniProt O43683); conditions: for logFC: BUB1 (O43683); for logFC BUB1 (O43683): direction down
[7] = target: T3, protein kinases (human kinome) (Homo sapiens, UniProt Q8TAS1)
T3 sequence (Q8TAS1 1-419): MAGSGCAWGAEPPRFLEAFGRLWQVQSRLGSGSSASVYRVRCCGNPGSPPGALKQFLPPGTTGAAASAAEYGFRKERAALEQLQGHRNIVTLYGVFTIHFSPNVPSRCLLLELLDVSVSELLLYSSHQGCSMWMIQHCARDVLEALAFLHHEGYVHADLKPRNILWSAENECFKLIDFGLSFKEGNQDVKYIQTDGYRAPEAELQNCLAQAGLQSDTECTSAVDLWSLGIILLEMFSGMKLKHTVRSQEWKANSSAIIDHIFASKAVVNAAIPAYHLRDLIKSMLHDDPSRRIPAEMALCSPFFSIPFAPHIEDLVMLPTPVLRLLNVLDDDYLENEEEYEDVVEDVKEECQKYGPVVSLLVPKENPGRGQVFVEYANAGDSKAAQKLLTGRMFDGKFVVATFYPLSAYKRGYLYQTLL

Sequence of protein kinases (human kinome) (Homo sapiens, UniProt Q8NI60) (Q8NI60 163-647): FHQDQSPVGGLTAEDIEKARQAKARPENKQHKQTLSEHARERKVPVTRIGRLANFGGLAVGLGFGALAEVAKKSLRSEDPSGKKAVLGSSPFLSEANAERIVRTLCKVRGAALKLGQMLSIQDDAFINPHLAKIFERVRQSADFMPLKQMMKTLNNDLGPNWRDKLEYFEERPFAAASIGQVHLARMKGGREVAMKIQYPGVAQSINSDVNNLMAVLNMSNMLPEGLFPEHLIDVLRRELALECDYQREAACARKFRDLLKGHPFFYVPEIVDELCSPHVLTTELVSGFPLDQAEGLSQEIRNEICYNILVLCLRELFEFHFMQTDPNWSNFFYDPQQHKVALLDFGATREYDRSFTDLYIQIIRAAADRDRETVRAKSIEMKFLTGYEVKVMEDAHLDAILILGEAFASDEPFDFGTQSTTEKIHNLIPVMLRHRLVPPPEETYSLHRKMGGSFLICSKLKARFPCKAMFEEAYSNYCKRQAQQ
Sequence of protein kinases (human kinome) (Homo sapiens, UniProt O43683) (O43683 whole entry): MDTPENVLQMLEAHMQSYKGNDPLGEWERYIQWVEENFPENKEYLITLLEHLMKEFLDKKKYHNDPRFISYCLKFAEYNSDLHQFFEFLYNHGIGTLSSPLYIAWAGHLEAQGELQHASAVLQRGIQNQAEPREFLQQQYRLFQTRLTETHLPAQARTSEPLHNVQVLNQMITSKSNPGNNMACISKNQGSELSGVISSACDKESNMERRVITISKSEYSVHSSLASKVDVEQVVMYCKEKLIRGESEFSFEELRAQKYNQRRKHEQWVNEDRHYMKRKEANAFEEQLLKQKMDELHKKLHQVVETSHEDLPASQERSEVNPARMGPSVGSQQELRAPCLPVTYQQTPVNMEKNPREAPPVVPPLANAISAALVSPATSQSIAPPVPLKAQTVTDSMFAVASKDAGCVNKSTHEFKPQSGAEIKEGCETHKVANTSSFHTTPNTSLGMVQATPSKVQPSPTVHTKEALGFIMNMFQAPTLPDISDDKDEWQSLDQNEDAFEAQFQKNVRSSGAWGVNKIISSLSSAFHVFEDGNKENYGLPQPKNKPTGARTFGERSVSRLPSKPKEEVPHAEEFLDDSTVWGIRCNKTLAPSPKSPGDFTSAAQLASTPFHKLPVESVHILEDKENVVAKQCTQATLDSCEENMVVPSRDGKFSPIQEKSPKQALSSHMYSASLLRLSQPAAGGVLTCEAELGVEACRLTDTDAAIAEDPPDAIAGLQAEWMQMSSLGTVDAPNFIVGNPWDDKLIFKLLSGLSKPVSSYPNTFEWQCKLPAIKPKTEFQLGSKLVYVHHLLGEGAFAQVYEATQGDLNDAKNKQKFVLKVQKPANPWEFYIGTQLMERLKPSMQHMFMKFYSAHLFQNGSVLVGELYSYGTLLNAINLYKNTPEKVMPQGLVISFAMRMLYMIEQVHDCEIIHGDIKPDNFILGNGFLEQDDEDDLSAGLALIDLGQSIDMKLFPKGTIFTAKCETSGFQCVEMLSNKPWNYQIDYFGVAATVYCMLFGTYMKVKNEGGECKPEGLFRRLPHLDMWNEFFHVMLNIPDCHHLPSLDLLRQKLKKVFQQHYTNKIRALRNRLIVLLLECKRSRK
Sequence of protein kinases (human kinome) (Homo sapiens, UniProt Q14289) (Q14289 whole entry): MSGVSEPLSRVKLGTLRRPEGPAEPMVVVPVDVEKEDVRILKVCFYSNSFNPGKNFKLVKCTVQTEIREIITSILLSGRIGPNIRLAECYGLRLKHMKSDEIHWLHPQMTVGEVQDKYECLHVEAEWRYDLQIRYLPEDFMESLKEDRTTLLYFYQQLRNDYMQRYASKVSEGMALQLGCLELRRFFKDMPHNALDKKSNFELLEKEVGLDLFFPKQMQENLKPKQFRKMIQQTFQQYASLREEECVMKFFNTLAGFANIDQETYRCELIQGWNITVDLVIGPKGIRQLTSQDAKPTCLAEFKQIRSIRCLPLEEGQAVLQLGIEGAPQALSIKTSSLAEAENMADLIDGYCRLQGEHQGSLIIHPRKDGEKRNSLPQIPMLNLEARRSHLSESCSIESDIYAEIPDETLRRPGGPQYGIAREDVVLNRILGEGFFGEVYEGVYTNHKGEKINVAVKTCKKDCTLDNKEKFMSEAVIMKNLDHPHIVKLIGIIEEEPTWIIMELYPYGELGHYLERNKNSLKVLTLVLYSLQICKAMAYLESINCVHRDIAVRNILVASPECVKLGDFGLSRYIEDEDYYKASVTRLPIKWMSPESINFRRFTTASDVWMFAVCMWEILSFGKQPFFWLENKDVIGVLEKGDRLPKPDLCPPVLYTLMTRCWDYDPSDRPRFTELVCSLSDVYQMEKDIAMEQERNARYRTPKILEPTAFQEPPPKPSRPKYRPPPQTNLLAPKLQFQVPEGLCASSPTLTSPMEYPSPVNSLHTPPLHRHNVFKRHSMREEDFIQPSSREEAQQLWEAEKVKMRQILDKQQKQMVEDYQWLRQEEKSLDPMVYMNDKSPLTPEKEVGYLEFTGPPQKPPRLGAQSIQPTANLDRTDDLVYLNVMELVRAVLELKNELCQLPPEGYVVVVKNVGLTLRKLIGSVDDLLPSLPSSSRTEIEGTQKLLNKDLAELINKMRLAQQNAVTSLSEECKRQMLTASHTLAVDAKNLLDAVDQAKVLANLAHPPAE

## C=CCn1c(=O)c2cnc(Nc3ccc(N4CCN(CCCNc5cccc6c5C(=O)N(C5CCC(=O)NC5=O)C6=O)CC4)cc3)nc2n1-c1cccc(C(C)(C)O)n1 (centres unmarked) [ZNL.02.096]
[1]; experiment wp056
  logFC COQ8A (Q8N160-1): −0.4317
  logFC COQ8A (Q8NI60-1): −0.4317
[1]; experiment wp118
  logFC COQ8A (Q8N160-1): −0.423
  logFC COQ8A (Q8NI60-1): −0.423
[2]; experiment wp118
  logFC NADK2: −0.4004
[3]; experiment wp056
  logFC PDK2: −0.5561
  logFC PDK2 (Q15119-1): −0.5561
[3]; experiment wp118
  logFC PDK2: −0.37
  logFC PDK2 (Q15119-1): −0.37

## CN(C)C(=O)c1cc2cnc(Nc3ccc(N4CCN(CCCCNC(=O)COc5cccc6c5C(=O)N(C5CCC(=O)NC5=O)C6=O)CC4)cn3)nc2n1C1CCCC1 (centres unmarked) [BSJ.04.132]
[1]; experiment wp084
  logFC COQ8A (Q8N160-1): −0.5939
  logFC COQ8A (Q8NI60-1): −0.6939
[4]; experiment wp084
  logFC TBRG4: −0.6395
[2]; experiment wp084
  logFC NADK2: −0.5591
[3]; experiment wp084
  logFC PDK2: −0.5289
  logFC PDK2 (Q15119-1): −0.5289

## O=C(COc1cccc2c1C(=O)N(C1CCC(=O)NC1=O)C2=O)NCCCCCCCC(=O)NC1(c2ccc(-c3nc4ccn5c(=O)[nH]nc5c4cc3-c3ccccc3)cc2)CCC1 (centres unmarked) [INY.01.140.1]
[4]; experiment wp081
  logFC TBRG4: −0.4208
[2]; experiment wp081
  logFC NADK2: −0.3886
[3]; experiment wp081
  logFC PDK2: −0.6094
  logFC PDK2 (Q15119-1): −0.6094

## CC(C)S(=O)(=O)c1ccccc1Nc1nc(Nc2ccc(N3CCN(CCOCCOCCNC(=O)CNc4cccc5c4C(=O)N(C4CCC(=O)NC4=O)C5=O)CC3)cc2)ncc1Cl (centres unmarked) [TL12.186]
[1]; experiment wp137
  logFC COQ8A (Q8N160-1): −0.4564
  logFC COQ8A (Q8NI60-1): −0.4564
[4]; experiment wp137
  logFC TBRG4: −0.3425
[5]
  logFC: −3.722
[5]; experiment wp016
  logFC PTK2B: −3.722
[6]; experiment wp131
  logFC: −0.4983
[6]; experiment wp137
  logFC: −0.4422
[6]; Experiment wp131
  logFC BUB1 (O43683): −0.4983
[6]; Experiment wp137
  logFC BUB1 (O43683): −0.4422
[3]; experiment wp137
  logFC PDK2: −0.5022
  logFC PDK2 (Q15119-1): −0.5022

## CC(=O)c1c(C)c2cnc(Nc3ccc(N4CCN(CCOCCOCCOCCNC(=O)COc5cccc6c5C(=O)N(C5CCC(=O)NC5=O)C6=O)CC4)cn3)nc2n(C2CCCC2)c1=O (centres unmarked) [BSJ.03.123]
[1]; experiment wp084
  logFC COQ8A (Q8N160-1): −0.4611
  logFC COQ8A (Q8NI60-1): −0.4611
[2]; experiment wp084
  logFC NADK2: −0.4839
[3]; experiment wp084
  logFC PDK2: −0.3615
  logFC PDK2 (Q15119-1): −0.3615

## CNC(=O)c1ccccc1Nc1cc(Nc2ccc(N3CCN(CCOCCOCCNC(=O)CNc4cccc5c4C(=O)N(C4CCC(=O)NC4=O)C5=O)CC3)cc2OC)ncc1C(F)(F)F (centres unmarked) [MFH.5.103.1]
[4]; experiment wp076
  logFC TBRG4: −0.3858
[5]
  logFC: −3.18
[5]; experiment wp076
  logFC PTK2B: −3.18

## CC(C)(C)c1nc(-c2cccc(NS(=O)(=O)c3c(F)cccc3F)c2F)c(-c2ccnc(NCCOCCNC(=O)CCOCCOCCNc3cccc4c3C(=O)N(C3CCC(=O)NC3=O)C4=O)n2)s1 (centres unmarked) [DD.03.106]
[1]; experiment wp147, 1 uM
  logFC COQ8A (Q8N160-1): −0.3548
  logFC COQ8A (Q8NI60-1): −0.3548
[1]; experiment wp147, 4 uM
  logFC COQ8A (Q8N160-1): −0.8159
  logFC COQ8A (Q8NI60-1): −0.8159
[4]; experiment wp147, 4 uM
  logFC TBRG4: −0.7514
[2]; experiment wp147, 4 uM
  logFC NADK2: −0.6976
[3]; experiment wp147, 4 uM
  logFC PDK2 (Q15119-1): −0.727

## CC(C)S(=O)(=O)c1ccccc1Nc1nc(Nc2ccc(N3CCN(CCOCCNC(=O)CNc4cccc5c4C(=O)N(C4CCC(=O)NC4=O)C5=O)CC3)cc2)ncc1Cl (centres unmarked) [SK.3.91]
[1]; experiment wp160, 1 hr
  logFC COQ8A (Q8N160-1): −0.7959
  logFC COQ8A (Q8NI60-1): −0.7959
[7]; Accession Q8TAS1, experiment wp160, 2 hr, direction down
  logFC UHMK1: −0.4144
[7]; Accession Q8TAS1, experiment wp160, 4 hr, direction down
  logFC UHMK1: −0.3959
[7]; UHMK1 (Q8TAS1), experiment wp160, 2 hr
  logFC UHMK1: −0.4144
[7]; UHMK1 (Q8TAS1), experiment wp160, 4 hr
  logFC UHMK1: −0.3959
[4]; experiment wp160, 1 hr
  logFC TBRG4: −0.9113
[5]; 1 uM
  logFC: −3.603
[5]; 1 hr
  logFC: −0.8056 and −1.043
[5]; 2 hr
  logFC: −2.027 and −2.105
[5]; experiment wp016, 1 uM
  logFC PTK2B: −3.603
[5]; experiment wp016
  logFC PTK2B: −3.824
[5]; experiment wp114
  logFC PTK2B: −1.885
[5]; experiment wp133, 1 hr
  logFC PTK2B: −0.8056
[5]; experiment wp133, 2 hr
  logFC PTK2B: −2.027
[5]; experiment wp133, 4 hr
  logFC PTK2B: −3.96
[5]; experiment wp160, 1 hr
  logFC PTK2B: −1.043
[5]; experiment wp160, 2 hr
  logFC PTK2B: −2.105
[5]; experiment wp160, 4 hr
  logFC PTK2B: −2.773
[2]; experiment wp160, 1 hr
  logFC NADK2: −0.698
[6]; experiment wp133, 1 hr
  logFC: −0.4907
[6]; experiment wp133, 2 hr
  logFC: −0.4456
[6]; experiment wp133, 4 hr
  logFC: −0.5963
[6]; Experiment wp133, 1 hr
  logFC BUB1 (O43683): −0.4907
[6]; Experiment wp133, 2 hr
  logFC BUB1 (O43683): −0.4456
[6]; Experiment wp133, 4 hr
  logFC BUB1 (O43683): −0.5963
